Drawing on patent publication US8563505B2, “Hepatitis C virus inhibitors” (priority 2008, dated 2013), this text covers IC50 and EC50 for 17 molecules.

The target of test [1] is T1, HCV NS3/4A protease complex (Hepatitis C virus genotype 1a, UniProt P27958, C1454S/C1711G).
T1 construct: DNA encoding the recombinant HCV NS3/4A protease complex (amino acids 1027 to 1711) for these strains; inferred from pET21b vector and Ni-NTA purification) (C); made in house; host or cells: Escherichia coli BL21 (DE3), pET21b
Briefly: FRET peptide assay to monitor HCV NS3/4A proteolytic activity. The conditions noted are these: NS3/4A strain not stated. The class given is biochemical. From the text: HCV NS3 protease complexes, derived from the BMS strain, H77 strain or J4L6S strain, were generated, as described below. These purified recombinant proteins were generated for use in a homogeneous assay (see below) to provide an indication of how effective compounds of the present disclosure would be in inhibiting HCV NS3 proteolytic activity.
The H77 and J4L6S strains were used for production of recombinant NS3/4A protease complexes. DNA encoding the recombinant HCV NS3/4A protease complex (amino acids 1027 to 1711) for these strains was manipulated as described by P. Gallinari et al. (see Gallinari P, Paolini C, Brennan D, Nardi C, Steinkuhler C, De Francesco R. Biochemistry. 38(17):5620-32, (1999)). Briefly, a three-lysine solubilizing tail was added at the 3′-end of the NS4A coding region. The cysteine in the P1 position of the NS4A-NS4B cleavage site (amino acid 1711) was changed to a glycine to avoid the proteolytic cleavage of the lysine tag. Furthermore, a cysteine to serine mutation was introduced by PCR at amino acid position 1454 to prevent the autolytic cleavage in the NS3 helicase domain. The variant DNA fragment was cloned in the pET21b bacterial expression vector (Novagen) and the NS3/4A complex was expressed in Escherichia coli strain BL21 (DE3) (Invitrogen) following the protocol described by P. Gallinari et al. (see Gallinari P, Brennan D, Nardi C, Brunetti M, Tomei L, Steinkuhler C, De Francesco R., J Virol. 72(8):6758-69 (1998)) with modifications. Briefly, the NS3/4A protease complex expression was induced with 0.5 millimolar (mM) Isopropyl β-D-1-thiogalactopyranoside (IPTG) for 22 hours (h) at 20° C. A typical fermentation (1 Liter (L)) yielded approximately 10 grams (g) of wet cell paste. The cells were resuspended in lysis buffer (10 mL/g) consisting of 25 mM N-(2-Hydroxyethyl)Piperazine-N′-(2-Ethane Sulfonic acid) (HEPES), pH 7.5, 20% glycerol, 500 mM Sodium Chloride (NaCl), 0.5% Triton X-100, 1 microgram/milliliter ([…]) lysozyme, 5 mM Magnesium Chloride (MgCl2), 1 μg/ml DnaseI, 5 mM […] (βME), Protease inhibitor-Ethylenediamine Tetraacetic acid (EDTA) free (Roche), homogenized and incubated for 20 minutes (min) at 4° C. The homogenate was sonicated and clarified by ultra-centrifugation at 235000 g for 1 hour (h) at 4° C. Imidazole was added to the supernatant to a final concentration of 15 mM and the pH adjusted to 8.0. The crude protein extract was loaded on a Nickel-Nitrilotriacetic acid (Ni-NTA) column pre-equilibrated with buffer B (25 mM HEPES, pH 8.0, 20% glycerol, 500 mM NaCl, 0.5% Triton X-100, 15 mM imidazole, 5 mM βME). The sample was loaded at a flow rate of 1 mL/min. The column was washed with 15 column volumes of buffer C (same as buffer B except with 0.2% Triton X-100). The protein was eluted with 5 column volumes of buffer D (same as buffer C except with 200 mM Imidazole).
NS3/4A protease complex-containing fractions were pooled and loaded on a desalting column Superdex-S200 pre-equilibrated with buffer D (25 mM HEPES, pH 7.5, 20% glycerol, 300 mM NaCl, 0.2% Triton X-100, 10 mM (βME). Sample was loaded at a flow rate of 1 mL/min. NS3/4A protease complex-containing fractions were pooled and concentrated to approximately 0.5 mg/ml. The purity of the NS3/4A protease complexes, derived from the BMS, H77 and J4L6S strains, were judged to be greater than 90% by SDS-PAGE and mass spectrometry analyses. The enzyme was stored at −80° C., thawed on ice and diluted prior to use in assay buffer.
The purpose of this in vitro assay was to measure the inhibition of HCV NS3 protease complexes, derived from the BMS strain, H77 strain or J4L6S strain, as described above, by compounds of the present disclosure. This assay provides an indication of how effective compounds of the present disclosure would be in inhibiting HCV NS3 proteolytic activity.
In order to monitor HCV NS3/4A protease activity, an NS3/4A peptide substrate was used. […]

Test [2] has as its system HCV replicon in HUH-7 cells. Briefly: HCV replicon assay (FRET, confirmed by luciferase reporter). As to conditions: Hepatitis C virus, 96 h, HUH-7 replicon cells, 4 days. The test is classed as cell-based, Hepatitis C virus (strain 1b). From the text: An HCV replicon whole cell system was established as described by Lohmann V, Korner F, Koch J, Herian U, Theilmann L, Bartenschlager R., Science 285(5424):110-3 (1999). This system enabled us to evaluate the effects of our HCV Protease compounds on HCV RNA replication. Briefly, using the HCV strain 1b sequence described in the Lohmann paper (Assession number: AJ238799), an HCV cDNA was synthesized by Operon Technologies, Inc. (Alameda, Calif.), and the full-length replicon was then assembled in plasmid pGem9zf(+) (Promega, Madison, Wis.) using standard molecular biology techniques. The replicon consists of (i) the HCV 5′ UTR fused to the first 12 amino acids of the capsid protein, (ii) the neomycin phosphotransferase gene (neo), (iii) the IRES from encephalomyocarditis virus (EMCV), and (iv) HCV NS3 to NS5B genes and the HCV 3′ UTR. Plasmid DNAs were linearized with Seal and RNA transcripts were synthesized in vitro using the T7 MegaScript transcription kit (Ambion, Austin, Tex.) according to manufacturer's directions. In vitro transcripts of the cDNA were transfected into the human hepatoma cell line, HUH-7. […] Resulting cell lines were characterized for positive and negative strand RNA production and protein production over time.
The HCV replicon FRET assay was developed to monitor the inhibitory effects of compounds described in the disclosure on HCV viral replication. HUH-7 cells, constitutively expressing the HCV replicon, were grown in Dulbecco's Modified Eagle Media (DMEM) (Gibco-BRL) containing 10% Fetal calf serum (FCS) (Sigma) and 1 mg/ml G418 (Gibco-BRL). Cells were seeded the night before (1.5×10^4 cells/well) in 96-well tissue-culture sterile plates. Compound and no compound controls were prepared in DMEM containing 4% FCS, 1:100 Penicillin/Streptomysin (Gibco-BRL), 1:100 L-glutamine and 5% DMSO in the dilution plate (0.5% DMSO final concentration in the assay). Compound/DMSO mixes were added to the cells and incubated for 4 days at 37° C. After 4 days, cells were first assessed for cytotoxicity using alamar Blue (Trek Diagnostic Systems) for a CC50 reading. The toxicity of compound (CC50) was determined by adding 1/10th volume of alamar Blue to the media incubating the cells. After 4 h, the fluorescence signal from each well was read, with an excitation wavelength at 530 nm and an emission wavelength of 580 nm, using the Cytofluor Series 4000 (Perspective Biosystems). Plates were then rinsed thoroughly with Phosphate-Buffered Saline (PBS) (3 times 150 μl).
As a secondary assay, EC50 determinations from the replicon FRET assay were confirmed in a replicon luciferase reporter assay. Utilization of a replicon luciferase reporter assay was first described by Krieger et al (Krieger N, Lohmann V, and Bartenschlager R, J. Viral. 75(10):4614-4624 (2001)). The replicon construct described for our FRET assay was modified by inserting cDNA encoding a humanized form of the Renilla luciferase gene and a linker sequence fused directly to the 3′-end of the luciferase gene. This insert was introduced into the replicon construct using an Asc1 restriction site located in core, directly upstream of the neomycin marker gene. The adaptive mutation at position 1179 (serine to isoleucine) was also introduced (Blight K J, Kolykhalov, A A, Rice, C M, Science 290(5498):1972-1974). A stable cell line constitutively expressing this HCV replicon construct was generated as described above. The luciferase reporter assay was set up as described for the HCV replicon FRET assay with the following modifications. Following 4 days in a 37° C./5% CO2 incubator, cells were analyzed for Renilla Luciferase activity using the Promega Dual-Glo Luciferase Assay System. Media (100 μl) was removed from each well containing cells. To the remaining 50 μl of media, 50 μl of Dual-Glo Luciferase Reagent was added, and plates rocked for 10 min to 2 h at room temperature. […]
For orientation: Replicon systems follow genome replication, usually without infectious particles.

T1 sequence (P27958 1027-1711 C1454S/C1711G, one chain of several): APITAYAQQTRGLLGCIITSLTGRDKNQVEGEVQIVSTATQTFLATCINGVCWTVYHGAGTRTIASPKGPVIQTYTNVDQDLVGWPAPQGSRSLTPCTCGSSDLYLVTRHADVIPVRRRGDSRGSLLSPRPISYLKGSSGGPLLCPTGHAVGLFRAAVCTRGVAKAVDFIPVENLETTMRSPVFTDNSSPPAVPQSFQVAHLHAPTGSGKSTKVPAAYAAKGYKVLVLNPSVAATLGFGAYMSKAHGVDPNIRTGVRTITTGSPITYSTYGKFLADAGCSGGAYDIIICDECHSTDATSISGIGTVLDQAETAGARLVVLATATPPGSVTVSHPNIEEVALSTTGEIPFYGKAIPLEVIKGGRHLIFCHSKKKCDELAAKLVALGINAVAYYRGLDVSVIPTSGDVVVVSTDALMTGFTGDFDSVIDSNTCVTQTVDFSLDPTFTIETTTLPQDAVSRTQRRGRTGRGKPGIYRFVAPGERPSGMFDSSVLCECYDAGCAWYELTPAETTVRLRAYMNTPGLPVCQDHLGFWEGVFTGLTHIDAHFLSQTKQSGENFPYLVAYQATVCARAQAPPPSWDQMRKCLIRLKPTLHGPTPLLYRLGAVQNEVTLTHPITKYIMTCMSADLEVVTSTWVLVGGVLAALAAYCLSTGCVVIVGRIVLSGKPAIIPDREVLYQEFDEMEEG

As usually defined, the IC50 is the concentration needed to halve the response being measured. What is called EC50 is the midpoint of the concentration-response curve. A higher EC50 goes with lower potency in that assay. In turn, `C=C[C@@H]1C[C@]1(NC(=O)[C@@H]1C[C@]2(OC)CN1C(=O)[C@H](C(C)(C)C)NC(=O)OCCCCCCc1ccccc1-c1ccc2cc1)C(=O)NS(=O)(=O)C1CC1` [Example 1] registered an IC50 in test [1] (numeric values) of 1 nM. This molecule gave an EC50 in test [2] (numeric values) of 5 nM. The like results for `CO[C@@]12C[C@@H](C(=O)N[C@]3(C(=O)NS(=O)(=O)C4CC4)C[C@H]3C3CC3)N(C1)C(=O)[C@H](C(C)(C)C)NC(=O)OCCCCCCc1ccccc1-c1ccc2cc1` [Example 2] were, in that order, 1.5 nM and 16 nM. In test [1] (class symbols), `CO[C@@]12C[C@@H](C(=O)N[C@]3(C(=O)NS(=O)(=O)C4CC4)C[C@H]3C3CC3)N(C1)C(=O)[C@H](C(C)(C)C)NC(=O)OCCC(C)(C)CCCc1ccccc1-c1ccc2cc1` [Example 3] returned an IC50 of 4 to 7 nM. This molecule gave an EC50 in test [2] (class symbols) of 21 to 30 nM. The like results for `C=C[C@@H]1C[C@]1(NC(=O)[C@@H]1C[C@]2(OC)CN1C(=O)[C@H](C(C)(C)C)NC(=O)OCCC(C)(C)CCCc1ccccc1-c1ccc2cc1)C(=O)NS(=O)(=O)C1CC1` [Example 4] were, in that order, 1 to 3 nM and 11 to 20 nM. On to `CO[C@@]12C[C@@H](C(=O)N[C@]3(C(=O)NS(=O)(=O)C4CC4)C[C@H]3C3CC3)N(C1)C(=O)[C@H](C(C)(C)C)NC(=O)OCC(C)(C)CCCCc1ccccc1-c1ccc2cc1` [Example 5], for which the IC50 in test [1] (class symbols) was 4 to 7 nM. This molecule yielded an EC50 in test [2] (class symbols) of 11 to 20 nM. For the molecule `C=C[C@@H]1C[C@]1(NC(=O)[C@@H]1C[C@]2(OC)CN1C(=O)[C@H](C(C)(C)C)NC(=O)OCC(C)(C)CCCCc1ccccc1-c1ccc2cc1)C(=O)NS(=O)(=O)C1CC1` [Example 6], the IC50 in test [1] (class symbols) lay in the range of 1 to 3 nM. Besides, the EC50 in test [2] (class symbols) lay in the range of 5.5 to 10 nM. For `CO[C@@]12C[C@@H](C(=O)N[C@]3(C(=O)NS(=O)(=O)C4CC4)C[C@H]3C(F)F)N(C1)C(=O)[C@H](C(C)(C)C)NC(=O)OCC(C)(C)CCCCc1ccccc1-c1ccc2cc1` [Example 7], in that order: 1 to 3 nM and 5.5 to 10 nM. The like results for `C=C[C@@H]1C[C@]1(NC(=O)[C@@H]1C[C@]2(OC)CN1C(=O)[C@H](C(C)(C)C)NC(=O)OCCCCc1cc2ccc1-c1ccccc1)C(=O)NS(=O)(=O)C1CC1` [Example 8] were, in that order, 8 to 11 nM and 21 to 30 nM.

The molecule `COc1ccc2c(c1)CCCCC(C)(C)COC(=O)N[C@@H](C(C)(C)C)C(=O)N1C[C@@](OC)(C[C@H]1C(=O)N[C@]1(C(=O)NS(=O)(=O)C3CC3)C[C@H]1C1CC1)c1ccc-2cc1` [Example 13] gave an IC50 in test [1] (class symbols) of 4 to 7 nM. In the case of `CO[C@@]12C[C@@H](C(=O)N[C@]3(C(=O)NS(=O)(=O)C4CC4)C[C@H]3C3CC3)N(C1)C(=O)[C@H](C(C)(C)C)NC(=O)OCCCCCc1ccccc1-c1ccc2cc1` [Example 14], the IC50 in test [1] (class symbols) lay in the range of 8 to 11 nM. Same read-out and setting: next, `C=C[C@@H]1C[C@]1(NC(=O)[C@@H]1C[C@]2(OC)CN1C(=O)[C@H](C(C)(C)C)NC(=O)OCCCCCc1ccccc1-c1ccc2cc1)C(=O)NS(=O)(=O)C1CC1` [Example 15]: 4 to 7 nM; `CO[C@@]12C[C@@H](C(=O)N[C@]3(C(=O)NS(=O)(=O)C4CC4)C[C@H]3C3CC3)N(C1)C(=O)[C@H](C(C)(C)C)NC(=O)OCC(C)(C)CCCc1ccccc1-c1ccc2cc1` [Example 16]: 4 to 7 nM; `CO[C@@]12C[C@@H](C(=O)N[C@]3(C(=O)NS(=O)(=O)C4CC4)C[C@H]3C3CC3)N(C1)C(=O)[C@H](C(C)(C)C)NC(=O)OCCCCCCCc1ccccc1-c1ccc2cc1` [Example 18]: 1 to 3 nM. On the same count and under the same terms, then `C=C[C@@H]1C[C@]1(NC(=O)[C@@H]1C[C@]2(OC)CN1C(=O)[C@H](C(C)(C)C)NC(=O)OCCCCCCCc1ccccc1-c1ccc2cc1)C(=O)NS(=O)(=O)C1CC1` [Example 19], with 1 to 3 nM; and `CO[C@@]12C[C@@H](C(=O)N[C@]3(C(=O)NS(=O)(=O)C4CC4)C[C@H]3C3CC3)N(C1)C(=O)[C@H](C(C)(C)C)NC(=O)OCCCCCCc1ccc(Cl)cc1-c1ccc2cc1` [Example 20], with 1 to 3 nM.

With `CO[C@@]12C[C@@H](C(=O)N[C@]3(C(=O)NS(=O)(=O)C4CC4)C[C@H]3C3CC3)N(C1)C(=O)[C@H](C(C)(C)C)NC(=O)OCCCCc1cccc(c1)-c1cccc2c1` [Example 21], the IC50 in test [1] (class symbols) lay within 1 to 3 nM. Still for that read-out and setting: next, `CO[C@@]12C[C@@H](C(=O)N[C@]3(C(=O)NS(=O)(=O)C4CC4)C[C@H]3C3CC3)N(C1)C(=O)[C@H](C(C)(C)C)NC(=O)OCC(C)(C)CCCCc1cc(N(C)C)ccc1-c1ccc2cc1` [Example 22]: 1 to 3 nM.
